In patent US20250205231A1, “Tear Film Stability” (priority 2012, published 2025):
“And” between values parts separate entries of the source, which are not always exact repeats. Equal entries are not always repeated. “Also recorded” adds a separate entry of the source.

Tests used:
[1] = system: patients with dry eye and blepharitis; assay: Blepharitis score, topical statin pilot study; assay type: in vivo, human; parameters: Blepharitis score: scale not given here
Description: (§1) Aim: To investigate topical statin as a novel therapy for dry eyes associated with blepharitis. Methods: 10 patients with symptoms and signs of dry eye and blepharitis were enrolled in a prospective pilot study of topical statin therapy over 1 month. The primary outcome measure was corneal fluorescein staining. Results: An Improvement in corneal fluorescein staining by a 3 points from baseline to completion of the trial at week four was found in 6 of 10 patients in the study eye. Subjective dry eye symptoms improved (p=0.005). […] Conclusions: Topical statins are a suitable therapy for patients with dry eye and blepharitis. They can be easily manufactured and could be widely available.
(§2) 10 patients were enrolled and completed the study.
(§3) Patients with • 1) Any symptoms of dry eyes and blepharitis • 2) Any signs of dry eyes: • BUT (tear break up time)≤5 sec, or • Punctate epithelial erosions in at least one eye • 3) Any signs of blepharitis: • Anterior lid margin—grease, skin scales, collarets, frank ulcers, loss of lashes and inflammation • Posterior lid margin—cheesy secretions, blocked meibomian glands >⅓, telangiectasia, meibomitis, notched lid margin and chalaza • 4) Male or female patients greater or equal to 18 years of age • 5) Patients able to give written informed consent and comply with study protocol […]
(§4) Patients were evaluated at weeks 1, 2, 3 and 4. […]

[2] = system: patients with dry eye and blepharitis; assay: Subjective dry eye symptom scores (global and individual), topical statin pilot study; assay type: in vivo, human; parameters: Global Symptom score: scale not given here
Description: as §1, §2
(§5) Patients with • 1) Any symptoms of dry eyes and blepharitis • 2) Any signs of dry eyes: • BUT (tear break up time)≤5 sec, or • Punctate epithelial erosions in at least one eye • 3) Any signs of blepharitis: • Anterior lid margin—grease, skin scales, collarets, frank ulcers, loss of lashes and inflammation • Posterior lid margin—cheesy secretions, blocked meibomian glands >⅓, telangiectasia, meibomitis, notched lid margin and chalaza • 4) Male or female patients greater or equal to 18 years of age • 5) Patients able to give written informed consent and comply with study protocol
(§6) • 1) Subjective • Total symptoms score • Face score (Goto et al 2002) • 2) Objective • a) Tear film break-up time (BUT) • b) Corneal fluorescein staining • b) Blepharitis score • c) Bulbar conjunctival injection • d) Concomitant use of topical therapy
(§7) Patients were evaluated at weeks 1, 2, 3 and 4. However, the primary endpoint was at trial completion (4 weeks). A p value <0.050 was considered statistically significant.

[3] = system: patients with dry eye and blepharitis; assay: Schirmer I test, topical statin pilot study; assay type: in vivo, human; conditions: baseline to week four
Description: as §1, §2, §5, §4

[4] = system: patients with dry eye and blepharitis; assay: Safety evaluation: best-corrected visual acuity (BCVA); conditions: baseline to study completion
[5] = system: patients with dry eye and blepharitis; assay: Concomitant use of topical lubricants, topical statin pilot study; assay type: in vivo, human
Description: as §2, §6
Prior to the study, 6 patients were using topical lubricants an average of 6 times a day (range 2 to 8. SD 2.3); 4 of these patients were using preservative-free lubricants. At study completion, 2 patients had ceased their topical lubrication, and 3 of the remaining 4 patients had reduced the frequency of lubricant use to an average of 4 times a day (range 3 to […]). […] One patient had had punctal occlusion in the study eye. 4 patients were performing lid massage with hot compresses and 4 were using a cotton bud for lid hygiene, 1 with bicarbonate of soda solution and 2 with shampoo. Patients were asked not to change these regimes during the study period.

[6] = system: patients with dry eye and blepharitis; assay: Corneal fluorescein staining (National Eye Institute scoring 0-15), topical statin pilot study; assay type: in vivo, human
Description: as §1, §2, §5, §6, §7

[7] = system: patients with dry eye and blepharitis; assay: Safety evaluation: intraocular pressure (IOP); conditions: baseline to study completion
[8] = system: patients with dry eye and blepharitis; assay: Face score (facial analogue scale, Goto et al 2002), topical statin pilot study; assay type: in vivo, human; parameters: Facescale score: scale not given here
Description: as §1, §2, §3, §4

[9] = system: patients with dry eye and blepharitis; assay: Tear film break-up time (BUT), topical statin pilot study; assay type: in vivo, human; conditions: 1 month topical therapy
Description: as §1, §2, §3, §4

[10] = system: patients with dry eye and blepharitis; assay: Safety evaluation: cataract and adverse reactions; assay type: in vivo, human
Description: as §2

[11] = 1 month, study eye, individual patients 1-10, listed as topical statin

SMILES: CC(C)c1c(C(=O)Nc2ccccc2)c(-c2ccccc2)c(-c2ccc(F)cc2)n1CC[C@@H](O)C[C@@H](O)CC(=O)O [Atorvastatin]
- Effect on blepharitis score (in words) ([1]; 1 month topical therapy): significantly improved
- Blepharitis score [1, 11]: 7 (2×) and 5 (3×) and 4 (3×) and 2 (2×)
- Effect on subjective dry eye symptoms (in words) ([2]; 1 month topical therapy): improved
- Global Symptom score [2, 11]: 5 and 0 (5×) and 3 and 4 and 1 and 2
- Change in blurred vision score (in words) ([2]; enrolment to week four): no significant change
- Change in discomfort score (in words) ([2]; enrolment to week four): significant improvement
- Change in dryness score (in words) ([2]; enrolment to week four): significant improvement
- Change in foreign body sensation score (in words) ([2]; enrolment to week four): significant improvement
- Change in photophobia score (in words) ([2]; enrolment to week four): no significant change
- Change in redness score (in words) ([2]; enrolment to week four): significant improvement
- Change in watering score (in words) ([2]; enrolment to week four): significant improvement
- Change in Schirmer I test result (in words) [3]: no significant change
- Change in BCVA, fellow eye (in words) [4]: no significant change
- Change in BCVA, study eye (in words) [4]: no significant change
- Patients who had ceased their topical lubrication at study completion ([5]; of 6 patients using topical lubricants prior to the study): 2 patients
- Patients who had reduced the frequency of lubricant use ([5]; of the remaining 4 patients, at study completion): 3 patients
- Average frequency of lubricant use at study completion ([5]; range 3 to 6, SD 0.6, prior to the study average 6 times a day): 4 times a day
- Corneal fluorescein score ([6]; 1 month, NEI scale 0-15, individual patients 1-10, 50 microM, 8 times a day, listed as topical statin): 1 (2×) and 0 (4×) and 2 (3×) and 4
- Patients with improvement in corneal fluorescein staining by three or more points ([6]; of 10 patients, baseline to week four): 6 patients
- Patients with corneal fluorescein staining score improved by more than one point ([6]; of the 10 patients): 9 patients
- Change in IOP, study eye (in words) [7]: no change
- Facescale score ([8]; 1 month, facial analogue scale, individual patients 1-10, listed as topical statin): 4 (3×) and 1 and 3 (2×) and 5 (3×) and 2
- Change in face score (in words) ([8]; enrolment to week four): significant improvement
- Effect on tear film break-up time (in words) [9]: significantly improved
- Adverse events / side-effects ([10]; 1 month topical therapy, both eyes, 10 patients, listed as topical statin): no serious or irreversible side-effects; also recorded: No adverse events were reported
- Cataract development ([10]; baseline to study completion): no patient developed cataract
